Key:
[1] = In vitro permeation experiment of FP drug-in-adhesive patches in two-chamber diffusion cells; format: in vitro ADME, rabbit; conditions: for ER (Q24h with enhancer/Q24h without enhancer) for R-FP / Tlag of R-FP / Js of R-FP: permeant R-FP; for ER (Q24h with enhancer/Q24h without enhancer) for R-FP / Tlag of R-FP / Js of R-FP / ER (Q24h with enhancer/Q24h without enhancer) for S-FP / Tlag of S-FP / Js of S-FP / ER (Q24h with enhancer/Q24h without enhancer) for SR-FP / Tlag of SR-FP / Js of SR-FP: patch 5% drug (w/w); for ER (Q24h with enhancer/Q24h without enhancer) for R-FP / ER (Q24h with enhancer/Q24h without enhancer) for S-FP / ER (Q24h with enhancer/Q24h without enhancer) for SR-FP: enhancer equimolar to 5% 4-TER; for Tlag of R-FP / Js of R-FP / Tlag of S-FP / Js of S-FP / Tlag of SR-FP / Js of SR-FP: enhancer equimolar to 5% 4-TER (control: no enhancer); for Js of R-FP / Js of S-FP / Js of SR-FP: mean ± SD, n = 4; for ER (Q24h with enhancer/Q24h without enhancer) for S-FP / Tlag of S-FP / Js of S-FP: permeant S-FP; for ER (Q24h with enhancer/Q24h without enhancer) for SR-FP / Tlag of SR-FP / Js of SR-FP: permeant SR-FP
Description: Male, Japanese big-eared rabbits weighting 2.5–3.0 kg were purchased from the animal experimental center of North China University of Science and Technology. The experimental process was in accordance with the ‘Ethical Guide for Laboratory Animal Investigation’ and was approved by the Animal Experimental Center Committee of North China University of Science and Technology. All efforts were made to minimize animal suffering and to limit the number of animals used.
The hair of back skin was removed by clipper and electrical shaver carefully when the rabbits were anesthetized with ether. Full thickness of back skin was excised after the rabbit was sacrificed by injecting air into the ear veins, and the subcutaneous fat tissue was carefully removed using the surgical scissor and scalpel. The integrity of the skin was confirmed by microscopic observation method. The treated rabbit skin was cut into a size of 1.5 cm × 1.5 cm and stored at –80 °C until use. Before use, it needed to be immersed in physiological saline for 20 min to thaw.
Drug-in-adhesive patch (drug loading of 5% by adhesive) was prepared by using solvent evaporation method. An appropriate amount of FP was dissolved in a suitable amount of ethyl acetate, which was later added to the adhesive and mixed thoroughly with a mechanical stirrer. The resulting solution was coated onto release liner (Scotch Pak® 9744, 3M, USA) by using lab coating unit (6025, BLD Instruments Co. Ltd., Guangdong, China). The coated laminate was dried at 50 °C for 15 min. After the solvent had been removed, it was covered with backing laminate (Scotch Pak® 9732, 3M).
Modified two-chamber diffusion cells with an effective diffusion area of 0.95 cm^2 were employed in the in vitro permeation experiment. The cells were kept at 32 °C by the circulated water bath and stirred with magnetic bars at 400 rpm. The dermis side of the skin was attached to one-half of the side-by-side diffusion cells, the FP patch was pressed on the skin with the adhesive side facing the SC, and pH 7.4 PBS was used as the receptor medium. At predetermined time points (2, 4, 6, 8, 10, 12 and 24 h), the receptor solution of 2.0 mL was withdrawn and equal volume PBS was added to maintain a constant volume of receptor solution.
The cumulative amount of each drug permeating per unit area (Q) versus time was plotted. Q24h=(3.5Ci+2.0∑i=1n−1Ci−1)/A
Q was the cumulative skin permeation amount. Ci was the concentration in the receiver compartment at time i, A was the effective diffusion area of diffusion.
The steady-state flux (Js, µg/cm^2/h) was calculated from the slope of linear region of the plot. The lag-time was determined by extrapolating the linear portion of the curve to the abscissa. Js=dQr/Adt
Enhancement ratio (ER) was used to evaluate the activity of the enhancers, which is the ratio of Q24h with enhancer to Q24h without enhancer. ER=Q24h(with enhancer)/Q24h(without enhancer)

[2] = In vivo pharmacokinetic study, transdermal patch administration; design: species or system rabbit; conditions: rabbits, SR-FP patch with 5% enhancer or without (control); for V of R-FP: analyte R-; for V of S-FP: analyte S-
Experimental: Thirty-six male rabbits weighing 2.5 kg were divided into six groups, and the back skin was intact without erythema. For patch administration studies, patches without or with enhancers (120 mg/kg) were stuck to the shaved area of the rabbits. They were administered as follows: (1) control group: only the SR-FP; (2) enhancer group A: prepared SR-FP patch with 5% d-4-TER; (3) enhancer group B: prepared SR-FP patch with 5% d-4-T-dC18; (4) enhancer group C: prepared SR-FP patch with 5% l-4-T-dC18; (5) enhancer group D: prepared S-FP patch with 5% d-4-T-dC18; (6) enhancer group E: prepared R-FP patch with 5% d-4-T-dC18. In order to prevent the patches fallen off, gauze and medical tape were used to fix the patches. The blood from ear vein of rabbit was collected 0.5 mL at 0.5, 1, 2, 4, 6, 8, 12, 16, 20, 24, 26, 28, 30, 32, 36 and 48 h, and the patch was removed after 24 h, then the residual drug was wiped with physiological saline. The sample was processed by the same method as IV. All animal studies were carried out in accordance with the NIH Guidelines for the Care and Use of Laboratory Animals and were also approved by the Life Science Research Center of North China University of Science and Technology.
After being thawed and equilibrated to room temperature, an aliquot (100 μL) of plasma sample was spiked with […] (10 μL) of 40.0 μg/mL and 400 μL methanol. The samples were vortexed for 5 min and followed by centrifugation at 16,000 rpm for 10 min at 25 °C. After centrifugation, the supernatant was transferred to a clean tube and evaporated to dryness at 40 °C under a gentle stream of nitrogen. The dried samples were reconstituted with 100 μL mobile phase, vortexed and centrifuged before analysis.
Pharmacokinetic parameters were calculated using WinNonlin® software (Pharsight Corporation, San Diego, CA, USA) based on noncompartmental model, including the maximal plasma drug concentration (Cmax), the time to reach Cmax (Tmax) which were obtained from the observed data, the area under the time–concentration curve from time 0 to time t (AUC0–t) of distribution which was calculated using the linear trapezoidal rule, the mean residence time (MRT), the plasma clearance (Cl) and the apparent volume(V). Enhancement factor (Ef) was calculated from the following equation: Ef=AUC0−t(with enhancer)/AUC0−t(without enhancer)
The concentrations of drugs in the receptor medium or rabbit plasma were determined using a validated HPLC method. The HPLC system was equipped with a Shimadzu HPLC apparatus, including an LC-20AT pump, a SIL20A syringe, an SPD-20A detector, and a CTO-20A column oven. The propylparaben was used as an internal standard, and the flow rate of chromatographic analysis was set 1.0 mL/min. For in vitro analysis of SR-FP, thermo (USA) C18 column (150 mm × 4.6 mm, 5 μm particle) maintained at 40 °C was used to elute SR-FP, the mobile phase was used methanol and 1% aqueous glacial acetic acid (60:40, v/v) and the wavelength was set at 247 nm. The HPLC conditions of S-FP and R-FP were as follows: The column was CHIRALPAK®IA (4.6 mm × 250 mml, 5 μm particle diameter) of DAOCEL (Shanghai, China). The mobile phase consisted of acetonitrile and trifluoroacetic acid (0.05%, 50:50, v/v), the wavelength was set at 254 nm. For in vivo analysis of S-FP and R-FP, the mobile phase consisted of acetonitrile and trifluoroacetic acid (0.05%, 35:65, v/v), and other conditions were the same to in vitro analysis.
Absolute bioavailability (F) was calculated by the following equation: F=AUCpatch·Dosei.v./AUCi.v.·Dosepatch

cumulative transport of SR-FP at 24 h ([1]; 3% enhancer level (w/w)) [μg/cm^2] | cumulative transport of SR-FP at 24 h ([1]; 5% enhancer level (w/w)) [μg/cm^2] | ER (Q24h with enhancer/Q24h without enhancer) for R-FP [1] | Tlag of R-FP [1] [h] | Js of R-FP [1] [μg/cm^2/h] | ER (Q24h with enhancer/Q24h without enhancer) for S-FP [1] | Tlag of S-FP [1] [h] | Js of S-FP [1] [μg/cm^2/h] | ER (Q24h with enhancer/Q24h without enhancer) for SR-FP [1] | Tlag of SR-FP [1] [h] | Js of SR-FP [1] [μg/cm^2/h] | V of R-FP [2] [L] | V of S-FP [2] [L] | Q24h of SR-FP ([1]; enhancer at same molar concentration as 5% 4-TER) [μg/cm^2] | Compound
145.16 ± 13.64 | 222.09 ± 19.19 | 2.64 | 3.82 | 6.99 ± 1.12 | 2.25 | 4.07 | 6.02 ± 0.99 | 1.81 | 3.13 | 11.43 ± 2.06 |  |  |  | CC1=CC[C@@](O)(C(C)C)CC1 [l-4-TER, l-4-terpineol, reference compound]
 |  | 4.43 | 3.95 | 11.81 ± 1.23 | 4.13 | 4.08 | 10.99 ± 2.17 | 2.77 | 1.85 | 17.57 ± 4.13 | 139.60 ± 34.29 | 92.94 ± 28.69 |  | CCCCCCCCC=CCCCCCCCC(=O)OC1(C(C)C)CC=C(C)CC1 (stereo not drawn) [d-4-T-dC18, d-4-methyl-1-(1-methylethyl)-3-cyclohexen-1-yl octadec-9-enoate]
 |  | 1.38 | 2.11 | 3.19 ± 0.47 | 1.10 | 4.18 | 3.00 ± 0.69 | 1.35 | 2.96 | 6.58 ± 1.41 |  |  |  | CCCCCCC(=O)OC1(C(C)C)CC=C(C)CC1 (stereo not drawn) [l-4-T-C7, l-4-methyl-1-(1-methylethyl)-3-cyclohexen-1-yl heptanoate]
 |  | 4.6 | 3.68 | 12.04 ± 2.51 | 4.98 | 3.89 | 12.98 ± 3.51 | 4.45 | 3.61 | 20.53 ± 3.11 | 65.31 ± 28.90 | 68.51 ± 17.97 | 547.20 ± 35.94 | CCCCCCCCC=CCCCCCCCC(=O)OC1(C(C)C)CC=C(C)CC1 (stereo not drawn) [l-4-T-dC18, l-4-methyl-1-(1-methylethyl)-3-cyclohexen-1-yl octadec-9-enoate]
 |  | 3.19 | 3.98 | 8.16 ± 0.84 | 3.53 | 2.04 | 7.75 ± 1.68 | 2.85 | 3.58 | 18.79 ± 3.81 |  |  |  | CCCCCCCCCCCCCC(=O)OC1(C(C)C)CC=C(C)CC1 (stereo not drawn) [d-4-T-C14, d-4-methyl-1-(1-methylethyl)-3-cyclohexen-1-yl tetradecanoate]
168.14 ± 19.95 | 266.01 ± 58.81 | 2.74 | 3.58 | 7.34 ± 2.51 | 2.97 | 2.45 | 7.60 ± 1.47 | 2.16 | 3.60 | 14.43 ± 3.62 | 251.59 ± 56.91 | 99.27 ± 18.81 |  | CC1=CCC(O)(C(C)C)CC1 (stereo not drawn) [d-4-TER, d-4-terpineol, reference compound]
 |  | 2.92 | 3.51 | 7.62 ± 1.49 | 2.73 | 3.37 | 6.80 ± 0.50 | 1.92 | 2.45 | 11.83 ± 6.27 |  |  |  | CCCCCCCCCCCCCC(=O)OC1(C(C)C)CC=C(C)CC1 (stereo not drawn) [l-4-T-C14, l-4-methyl-1-(1-methylethyl)-3-cyclohexen-1-yl tetradecanoate]
 |  | 1.96 | 2.40 | 4.40 ± 1.42 | 1.69 | 2.91 | 4.39 ± 0.49 | 2.14 | 3.74 | 14.46 ± 1.52 |  |  |  | CCCCCCC(=O)OC1(C(C)C)CC=C(C)CC1 (stereo not drawn) [d-4-T-C7, d-4-methyl-1-(1-methylethyl)-3-cyclohexen-1-yl heptanoate]
